Where two headings read alike, the source gives them in different places. Square brackets hold non-standard residues; d marks the D form. Peptide text beside a SMILES is read from it. * marks the point of attachment. Butyryl = CCCC(=O)*
Columns and labels:
[1] = tested on: X. fastidiosa subsp. fastidiosa IVIA 5387.2; assay type: cell-based, Xylella fastidiosa
[2] = tested on: X. fastidiosa subsp. fastidiosa IVIA 5387.2; conditions: for log reduction of cell viability: 3 h, 50 μM

Compound	Bactericidal activity: Reduction in viability (Log N0/N) [2] [Log N0/N]	Biofilm formation Level (antibiofilm activity) [1]	Biofilm formation Ratio (treatment/NTC) [1]	Planktonic cells Ratio (treatment/NTC) [1]	other results
CC[C@H](C)[C@H](NC(=O)[C@H](C)NC(=O)[C@H](Cc1c[nH]cn1)NC(=O)[C@@H]1CCCN1C(=O)[C@@H](NC(=O)[C@H](CC(C)C)NC(=O)[C@H](CO)NC(=O)[C@H](Cc1ccccc1)NC(=O)[C@H](CC(C)C)NC(=O)[C@@H](N)Cc1ccccc1)[C@@H](C)CC)C(=O)NCC(=O)NCC(=O)N[C@@H](CC(C)C)C(=O)N[C@H](C(=O)N[C@@H](CO)C(=O)N[C@@H](C)C(=O)N[C@@H](Cc1ccccc1)C(=O)N[C@@H](CCCCN)C(N)=O)[C@@H](C)CC [AamAP1]	1.38 ± 0.12				Hemolysis (horse erythrocytes; 150 µM): 100.00 ± 1.3%; Hemolysis (horse erythrocytes; 250 µM): 100.0 ± 4.1%; Hemolysis (horse erythrocytes; 375 µM): 100.0 ± 4.4%; Effect on X. fastidiosa growth in the antibiofilm test [1]: affected X. fastidiosa’s growth
CC[C@H](C)[C@H](NC(=O)[C@H](C)NC(=O)[C@H](CCCNC(=N)N)NC(=O)[C@@H]1CCCN1C(=O)[C@@H](NC(=O)[C@H](CC(C)C)NC(=O)[C@H](CO)NC(=O)[C@H](Cc1ccccc1)NC(=O)[C@H](CC(C)C)NC(=O)[C@@H](N)Cc1ccccc1)[C@@H](C)CC)C(=O)NCC(=O)NCC(=O)N[C@@H](CC(C)C)C(=O)N[C@H](C(=O)N[C@@H](CO)C(=O)N[C@@H](C)C(=O)N[C@@H](Cc1ccccc1)C(=O)N[C@@H](CCCCN)C(N)=O)[C@@H](C)CC [AamAP-R]	0.78 ± 0.01				Effect on X. fastidiosa growth in the antibiofilm test [1]: affected X. fastidiosa’s growth
CC[C@H](C)[C@H](NC(=O)[C@H](C)NC(=O)[C@H](CCCCN)NC(=O)[C@@H]1CCCN1C(=O)[C@@H](NC(=O)[C@H](CC(C)C)NC(=O)[C@H](CO)NC(=O)[C@H](Cc1ccccc1)NC(=O)[C@H](CC(C)C)NC(=O)[C@@H](N)Cc1ccccc1)[C@@H](C)CC)C(=O)NCC(=O)NCC(=O)N[C@@H](CC(C)C)C(=O)N[C@H](C(=O)N[C@@H](CO)C(=O)N[C@@H](C)C(=O)N[C@@H](Cc1ccccc1)C(=O)N[C@@H](CCCCN)C(N)=O)[C@@H](C)CC [AamAP-S1]	2.45 ± 0.09				Effect on X. fastidiosa growth in the antibiofilm test [1]: affected X. fastidiosa’s growth; log reduction of cell viability [2]: 2-3 log
CCCC(=O)N[C@H](C(=O)N[C@@H](CC(C)C)C(=O)N1CCC[C@H]1C(=O)N[C@H](Cc1ccccc1)C(=O)N[C@@H](CCCCN)C(=O)N[C@H](Cc1ccccc1)C(=O)N1CCC[C@H]1C(=O)N[C@H](Cc1ccccc1)C(=O)N[C@H](Cc1ccccc1)C(=O)N1CCC[C@H]1C(=O)N[C@H](Cc1ccccc1)C(=O)N[C@@H](CCCNC(=N)N)C(=O)N[C@@H](CCCNC(=N)N)C(N)=O)[C@@H](C)CC [BP526] (Butyryl-ILP[dF]K[dF]P[dF][dF]P[dF]RR-NH2)					Hemolysis (horse erythrocytes; 150 µM): 8.3 ± 0.7%; Hemolysis (horse erythrocytes; 250 µM): 20.4 ± 0.7%; Hemolysis (horse erythrocytes; 375 µM): 46.8 ± 3.3%; Biofilm formation Level (antibiofilm activity) ([1]; 50 µM): High (key: High: high antibiofilm activity (ratio of biofilm formation from 0.01 to 0.2); Moderate: moderate activity (ratio from 0.29 to 0.47); Low: low activity (ratio from 0.72 to 0.77)); Biofilm formation Ratio (treatment/NTC) ([1]; 50 µM): 0.17 ± 0.02; Planktonic cells Ratio (treatment/NTC) ([1]; 50 µM): 2.17 ± 0.02; Bactericidal activity: Reduction in viability (Log N0/N) ([2]; 50 µM): 0.56 ± 0.03 Log N0/N
CC[C@H](C)[C@H](NC(=O)CN)C(=O)NCC(=O)N[C@@H](CCCCN)C(=O)N[C@@H](Cc1ccccc1)C(=O)N[C@@H](CC(C)C)C(=O)N[C@@H](Cc1c[nH]cn1)C(=O)N[C@@H](CO)C(=O)N[C@@H](C)C(=O)N[C@@H](CCCCN)C(N)=O [Magainin 2(1-10)] (H-GIGKFLHSAK-NH2)	0.00 ± 0.06	Low (key: High: high antibiofilm activity (ratio of biofilm formation from 0.01 to 0.2); Moderate: moderate activity (ratio from 0.29 to 0.47); Low: low activity (ratio from 0.72 to 0.77))	0.77 ± 0.02	1.67 ± 0.07	
CC[C@H](C)[C@H](NC(=O)[C@H](CCCNC(=N)N)NC(=O)[C@H](Cc1ccccc1)NC(=O)[C@H](CCC(N)=O)NC(=O)[C@@H](N)CCCCN)C(=O)N[C@@H](CCCNC(=N)N)C(=O)N[C@H](C(=O)N[C@@H](CCCNC(=N)N)C(=O)N[C@H](C(N)=O)C(C)C)C(C)C [Peptide 1029] (H-KQFRIRVRV-NH2)	1.18 ± 0.08	High (key: High: high antibiofilm activity (ratio of biofilm formation from 0.01 to 0.2); Moderate: moderate activity (ratio from 0.29 to 0.47); Low: low activity (ratio from 0.72 to 0.77))	0.20 ± 0.01	1.71 ± 0.04	
CC[C@H](C)[C@H](NC(=O)[C@H](CCCNC(=N)N)NC(=O)[C@H](Cc1ccccc1)NC(=O)[C@H](CCC(N)=O)NC(=O)[C@@H](N)C(C)C)C(=O)N[C@@H](CCCNC(=N)N)C(=O)N[C@H](C(=O)N[C@@H](CCCNC(=N)N)C(=O)N[C@H](C(=O)N[C@H](C(=O)N[C@H](C(=O)N[C@@H](CCCNC(=N)N)C(=O)N[C@@H](CCCCN)C(N)=O)[C@@H](C)CC)C(C)C)[C@@H](C)CC)C(C)C [Peptide 1036] (H-VQFRIRVRIVIRK-NH2)		High (key: High: high antibiofilm activity (ratio of biofilm formation from 0.01 to 0.2); Moderate: moderate activity (ratio from 0.29 to 0.47); Low: low activity (ratio from 0.72 to 0.77))		2.16 ± 0.06	log reduction [2]: 3.48 log
CC[C@@H](C)[C@@H](NC(=O)[C@H](N)CCCNC(=N)N)C(=O)N[C@@H](C(=O)N[C@H](Cc1c[nH]c2ccccc12)C(=O)N[C@@H](C(=O)N[C@H](CCCNC(=N)N)C(=O)N[C@@H](C(=O)N[C@H](CCCNC(=N)N)C(=O)N[C@H](CCCNC(=N)N)C(=O)N[C@H](Cc1c[nH]c2ccccc12)C(=O)N[C@H](Cc1ccccc1)C(=O)N[C@@H](C(N)=O)C(C)C)[C@H](C)CC)C(C)C)C(C)C [RIJK2] (H-[dR][dI][dV][dW][dV][dR][dI][dR][dR][dW][dF][dV]-NH2)		High (key: High: high antibiofilm activity (ratio of biofilm formation from 0.01 to 0.2); Moderate: moderate activity (ratio from 0.29 to 0.47); Low: low activity (ratio from 0.72 to 0.77))		1.43 ± 0.09	
CC[C@H](C)[C@H](NC(=O)[C@H](Cc1c[nH]c2ccccc12)NC(=O)[C@H](CCCCN)NC(=O)[C@H](CCCCN)NC(=O)[C@@H](NC(=O)[C@H](CCCNC(=N)N)NC(=O)[C@H](CCCNC(=N)N)NC(=O)[C@@H](NC(=O)[C@@H](N)Cc1c[nH]c2ccccc12)[C@@H](C)CC)[C@@H](C)CC)C(=O)N[C@@H](CCCNC(=N)N)C(=O)N[C@@H](CCCNC(=N)N)C(=O)N[C@H](C(=O)N[C@@H](Cc1c[nH]cn1)C(=O)N[C@@H](CCCCN)C(N)=O)C(C)C [RR2-NH2] (H-WIRRIKKWIRRVHK-NH2)	1.43 ± 0.12	High (key: High: high antibiofilm activity (ratio of biofilm formation from 0.01 to 0.2); Moderate: moderate activity (ratio from 0.29 to 0.47); Low: low activity (ratio from 0.72 to 0.77))	0.13 ± 0.01	2.13 ± 0.07	
CC[C@H](C)[C@H](NC(=O)[C@H](CCCNC(=N)N)NC(=O)[C@H](CCCNC(=N)N)NC(=O)[C@H](CC(C)C)NC(=O)[C@@H](N)Cc1c[nH]c2ccccc12)C(=O)N[C@@H](CCCCN)C(=O)N[C@@H](C)C(=O)N[C@@H](Cc1c[nH]c2ccccc12)C(=O)N[C@@H](CC(C)C)C(=O)N[C@@H](CCCNC(=N)N)C(=O)N[C@@H](CCCNC(=N)N)C(=O)N[C@@H](CCCCN)C(=O)N[C@@H](CCCNC(=N)N)C(=O)N[C@@H](CCCCN)C(N)=O [RR3-NH2] (H-WLRRIKAWLRRKRK-NH2)	0.89 ± 0.09	Moderate (key: High: high antibiofilm activity (ratio of biofilm formation from 0.01 to 0.2); Moderate: moderate activity (ratio from 0.29 to 0.47); Low: low activity (ratio from 0.72 to 0.77))	0.29 ± 0.01	1.66 ± 0.09	
CC[C@H](C)[C@H](NC(=O)[C@H](CCCNC(=N)N)NC(=O)[C@H](CCCNC(=N)N)NC(=O)[C@H](CC(C)C)NC(=O)[C@H](Cc1c[nH]c2ccccc12)NC(=O)[C@H](C)NC(=O)[C@H](CCCCN)NC(=O)[C@@H](NC(=O)[C@H](CCCNC(=N)N)NC(=O)[C@H](CCCNC(=N)N)NC(=O)[C@H](CC(C)C)NC(=O)[C@@H](N)Cc1c[nH]c2ccccc12)[C@@H](C)CC)C(=O)N[C@@H](CCCCN)C(=O)N[C@@H](C)C(N)=O [RR4-NH2]	2.08 ± 0.09	High (key: High: high antibiofilm activity (ratio of biofilm formation from 0.01 to 0.2); Moderate: moderate activity (ratio from 0.29 to 0.47); Low: low activity (ratio from 0.72 to 0.77))	0.20 ± 0.01	1.84 ± 0.05	log reduction of cell viability [2]: 2-3 log
Cecropin B					Bactericidal activity: Reduction in viability (Log N0/N) ([2]; 3.1 µM): 2.13 ± 0.10 Log N0/N; Bactericidal activity: Reduction in viability (Log N0/N) ([2]; 12.5 μM): 3.19 ± 0.06 Log N0/N; log reduction ([2]; 12.5 μM): 3.19 log; Bactericidal activity: Reduction in viability (Log N0/N) ([2]; 50 µM): 4.00 ± 0.10 Log N0/N
